Experimental data published in ChEMBL document CHEMBL5321258, “Anticancer evaluation of benzofuran derivatives linked to dipiperazine moiety” (Bioorg Med Chem Lett, 2023).
Each block holds one molecule with its values, some of them ahead of it.

What was measured:
HeLa [1] = assay: Anticancer activity against human Hela cells assessed as inhibition rate at 10 uM by SRB assay relative to control; format: functional
HeLa [2] = assay: Anticancer activity against human Hela cells assessed as inhibition rate at 30 uM by SRB assay relative to control; format: functional
A549 [3] = assay: Anticancer activity against human A549 cells assessed as inhibition rate at 30 uM by SRB assay relative to control; format: functional
A549 [4] = assay: Anticancer activity against human A549 cells assessed as inhibition rate at 10 uM by SRB assay relative to control; format: functional
HeLa [5] = assay: Anticancer activity against human HeLa cells assessed as inhibition of cell proliferation by SRB assay; format: functional, cell-based
A549 [6] = assay: Anticancer activity against human A549 cells assessed as inhibition of cell proliferation by SRB assay; format: functional, cell-based
A549 [7] = assay: Induction of apoptosis in human A549 cells assessed as viable cells at 2.5 uM incubated for 24 hrs AnnexinV/ propidium iodide staining based flow cytometry (Rvb= 98.5 %); format: functional; conditions: read-out: Activity
A549 [8] = assay: Induction of apoptosis in human A549 cells assessed as late apoptotic cells at 5 uM incubated for 24 hrs AnnexinV/ propidium iodide staining based flow cytometry (Rvb= 0.54 %); format: functional
A549 [9] = assay: Induction of apoptosis in human A549 cells assessed as late apoptotic cells at 2.5 uM incubated for 24 hrs AnnexinV/ propidium iodide staining based flow cytometry (Rvb= 0.54 %); format: functional
A549 [10] = assay: Induction of apoptosis in human A549 cells assessed as early apoptotic cells at 2.5 uM incubated for 24 hrs AnnexinV/ propidium iodide staining based flow cytometry (Rvb= 0.79 %); format: functional
A549 [11] = assay: Induction of apoptosis in human A549 cells assessed as viable cells at 5 uM incubated for 24 hrs AnnexinV/ propidium iodide staining based flow cytometry (Rvb= 98.5 %); format: functional; conditions: read-out: Activity
A549 [12] = assay: Induction of apoptosis in human A549 cells assessed as necrotic cells at 2.5 uM incubated for 24 hrs AnnexinV/ propidium iodide staining based flow cytometry (Rvb= 0.16 %); format: functional
A549 [13] = assay: Induction of apoptosis in human A549 cells assessed as early apoptotic cells at 5 uM incubated for 24 hrs AnnexinV/ propidium iodide staining based flow cytometry (Rvb= 0.79 %); format: functional
A549 [14] = assay: Induction of apoptosis in human A549 cells assessed as necrotic cells at 5 uM incubated for 24 hrs AnnexinV/ propidium iodide staining based flow cytometry (Rvb= 0.16 %); format: functional

SMILES: CCN(CC)c1ccc2cc(C(=O)c3ccc(OCCN4CCN(C(=O)CN5CCN(C(=O)c6ccccc6C(F)(F)F)CC5)CC4)cc3)oc2c1
inhibition at 10 µM (HeLa [1]): 25.5% | inhibition at 30 µM (HeLa [2]): 44.1% | inhibition at 30 µM (A549 [3]): 34.5% | inhibition at 10 µM (A549 [4]): 27.3%

SMILES: CCN(CC)c1ccc2cc(C(O)c3ccc(OCCN4CCN(C(=O)CN5CCN(C(=O)c6ccc([N+](=O)[O-])cc6)CC5)CC4)cc3)oc2c1 (stereo not drawn)
inhibition at 10 µM (HeLa [1]): 17.2% | inhibition at 30 µM (HeLa [2]): 28.3% | inhibition at 30 µM (A549 [3]): 33% | inhibition at 10 µM (A549 [4]): 19.2%

SMILES: CCc1ccc(C(=O)N2CCN(CC(=O)N3CCN(CCOc4ccc(C(O)c5cc6ccc(N(CC)CC)cc6o5)cc4)CC3)CC2)cc1 (stereo not drawn)
inhibition at 10 µM (HeLa [1]): 36.1% | inhibition at 30 µM (HeLa [2]): 75.2% | inhibition at 30 µM (A549 [3]): 73.2% | inhibition at 10 µM (A549 [4]): 47.9%

SMILES: CCN(CC)c1ccc2cc(C(=O)c3ccc(OCCN4CCN(C(=O)CN5CCN(C(=O)c6ccccc6F)CC5)CC4)cc3)oc2c1
inhibition at 10 µM (HeLa [1]): 31.4% | inhibition at 30 µM (HeLa [2]): 56.9% | inhibition at 30 µM (A549 [3]): 76.9% | inhibition at 10 µM (A549 [4]): 66.4%

SMILES: CCN(CC)c1ccc2cc(C(=O)c3ccc(OCCN4CCN(C(=O)CN5CCN(C(=O)c6ccc(F)cc6)CC5)CC4)cc3)oc2c1
inhibition at 10 µM (HeLa [1]): 26% | inhibition at 30 µM (HeLa [2]): 57% | inhibition at 30 µM (A549 [3]): 45.3% | inhibition at 10 µM (A549 [4]): 29%

SMILES: C=C(C)C(=O)N1CCN(CC(=O)N2CCN(CCOc3ccc(C(O)c4cc5ccc(N(CC)CC)cc5o4)cc3)CC2)CC1 (stereo not drawn)
inhibition at 10 µM (HeLa [1]): 5.4% | inhibition at 30 µM (HeLa [2]): 30.5% | inhibition at 30 µM (A549 [3]): 55.5% | inhibition at 10 µM (A549 [4]): 22.2%

SMILES: CCN(CC)c1ccc2cc(C(=O)c3ccc(OCCN4CCN(C(=O)CN5CCN(C(=O)c6ccc(Br)cc6C(F)(F)F)CC5)CC4)cc3)oc2c1
inhibition at 10 µM (HeLa [1]): 33.2% | inhibition at 30 µM (HeLa [2]): 62.2% | inhibition at 30 µM (A549 [3]): 53.8% | inhibition at 10 µM (A549 [4]): 41.4%

The next lines start with results.

IC50 (HeLa [5]): > 30 µM | IC50 (A549 [6]): 1.54 µM
SMILES: CCN(CC)c1ccc2cc(C(O)c3ccc(OCCN4CCN(C(=O)CN5CCN(C(=O)c6ccc(C)cc6)CC5)CC4)cc3)oc2c1 (stereo not drawn)
inhibition at 10 µM (HeLa [1]): 15.9% | inhibition at 30 µM (HeLa [2]): 35.9% | inhibition at 30 µM (A549 [3]): 97.2% | inhibition at 10 µM (A549 [4]): 77.9%

IC50 (HeLa [5]): 14.5 µM | IC50 (A549 [6]): > 30 µM
SMILES: CCc1ccc(C(=O)N2CCN(CC(=O)N3CCN(CCOc4ccc(C(=O)c5cc6ccc(N(CC)CC)cc6o5)cc4)CC3)CC2)cc1
inhibition at 10 µM (HeLa [1]): 42.7% | inhibition at 30 µM (HeLa [2]): 81.1% | inhibition at 30 µM (A549 [3]): 76.7% | inhibition at 10 µM (A549 [4]): 24.7%

IC50 (HeLa [5]): 4.72 µM | IC50 (A549 [6]): 8.63 µM
SMILES: CCN(CC)c1ccc2cc(C(O)c3ccc(OCCN4CCN(C(=O)CN5CCN(C(=O)c6ccccc6F)CC5)CC4)cc3)oc2c1 (stereo not drawn)
inhibition at 10 µM (HeLa [1]): 79% | inhibition at 30 µM (HeLa [2]): 92% | inhibition at 30 µM (A549 [3]): 75.6% | inhibition at 10 µM (A549 [4]): 55.3%

IC50 (HeLa [5]): 28.3 µM | IC50 (A549 [6]): 8.96 µM
SMILES: CCN(CC)c1ccc2cc(C(O)c3ccc(OCCN4CCN(C(=O)CN5CCN(C(=O)c6cccc(C(F)(F)F)c6)CC5)CC4)cc3)oc2c1 (stereo not drawn)
inhibition at 10 µM (HeLa [1]): 43.9% | inhibition at 30 µM (HeLa [2]): 69.5% | inhibition at 30 µM (A549 [3]): 81.2% | inhibition at 10 µM (A549 [4]): 65.1%

IC50 (HeLa [5]): 11.2 µM | IC50 (A549 [6]): 21.4 µM
SMILES: CCN(CC)c1ccc2cc(C(=O)c3ccc(OCCN4CCN(C(=O)CN5CCN(C(=O)c6ccc7ccccc7c6)CC5)CC4)cc3)oc2c1
inhibition at 10 µM (HeLa [1]): 48.7% | inhibition at 30 µM (HeLa [2]): 85.3% | inhibition at 30 µM (A549 [3]): 78.8% | inhibition at 10 µM (A549 [4]): 30.9%

IC50 (HeLa [5]): 8.64 µM | IC50 (A549 [6]): 7.02 µM
SMILES: CCN(CC)c1ccc2cc(C(=O)c3ccc(OCCN4CCN(C(=O)CN5CCN(C(=O)c6ccc(C(F)(F)F)cc6)CC5)CC4)cc3)oc2c1
inhibition at 10 µM (HeLa [1]): 50.7% | inhibition at 30 µM (HeLa [2]): 94.9% | inhibition at 30 µM (A549 [3]): 77.9% | inhibition at 10 µM (A549 [4]): 54.8%

IC50 (HeLa [5]): > 30 µM | IC50 (A549 [6]): 0.12 µM
SMILES: CCN(CC)c1ccc2cc(C(O)c3ccc(OCCN4CCN(C(=O)CN5CCN(C(=O)c6ccc(C(F)(F)F)cc6)CC5)CC4)cc3)oc2c1 (stereo not drawn)
inhibition at 10 µM (HeLa [1]): 11.3% | viability at 2.5 µM (A549 [7]): 97% | Activity (A549 [8]): 3.49% | inhibition at 30 µM (HeLa [2]): 19.8% | inhibition at 30 µM (A549 [3]): 95.2% | inhibition at 10 µM (A549 [4]): 92.5% | Activity (A549 [9]): 1.73% | Activity (A549 [10]): 1.07% | viability at 5 µM (A549 [11]): 94% | Activity (A549 [12]): 0.25% | Activity (A549 [13]): 1.95% | Activity (A549 [14]): 0.55%
